Test results: EP4799701A2, “PYRIMID-2-YL-PYRAZOLE COMPOUNDS AS IRAK INHIBITORS” (Rigel Pharmaceuticals, Inc., priority 2022, dated 2023)
Values joined by “and” are separate entries in the source; they are usually repeats but may differ in a detail not shown here. Identical values can stand only once. Counter-ions that a name gives are not always drawn.

Key:
TLR4-induced IL-23 = assay: LPS induced IL23p19 in THP-1 cells (IFNγ primed), IL-23p19 sandwich ELISA; format: cell-based, human; settings: THP-1 cells primed with IFNγ, 1 µg/mL LPS, 18 hours; read-out: IL23-p19 ELISA, THP1-IFNy, LPS, 10pt EC50
From the text: LPS induced IL23p19 in THP-1 cells (with IFNy primed) Assay
THP-1 Cells (ATCC, Cat# TIB-202), Dimethyl Sulfoxide (DMSO) (Sigma-Aldrich, Cat# D2650), RPMI 1640 (Cellgro, Cat# 10-040-CM), Fetal Bovine Serum (Sigma, Cat# F4135), Albumin From Bovine Serum (BSA) (Sigma-Aldrich, Cat#A7906), LPS (Serotype K-235, Sigma, Product Number L 2143), IFNγ (Peprotech, Cat# 300-02), Capture antibody: Human IL-23p19 ELISA (e-Bioscience, Cat. # 14-7238-85), Detection antibody: Primary Mouse Biotinylated anti-human IL-12(p40/p70) (e-Bioscience, Cat. # 13-7129-85), Secondary HRP-conjugated Streptavidin (R&D Systems, Cat#DY998), 1x PBST Washing Buffer (PBS-Tween tablet) (VWR International, Cat#80058-558), ELISA Blocking Buffer (PBS with 1% BSA), ELISA Dilution Buffer (PBS with 1% BSA), 384 Well Flat-Bottom, MaxiSorp Black Immuno Plates (Thermo Scientific, Cat# 12-565-346), 384 Well Flat-Bottom, White Tissue Culture Plates (Thermo Scientific, Cat# 12-565-343), Super Signal ELISA Pico Chemiluminescent Substrate (Thermo Scientific, Cat#37070), Cell Titer Glo reagent (Promega, Cat#G7573), Positive control, IKK2VI inhibitor (Calbiochem, Cat#401483), AquaMax 4000 plate washer (Molecular Devices), Luminometer, Wallac Victor2 1420 Multilabel Counter.
On day 1, 50K/well THP-1 cells were seeded and primed with IFNγ (50ng/mL) in 384-well plates for about 18 hours in RPMI media with 10%FBS. On day 2, the compound was serially diluted in DMSO from 5 mM in 3-fold dilutions, and then diluted 1:125 in RPMI media with 10%FBS. […] IL-23p19 protein in 70 µL/well of supernatant was measured by sandwich ELISA, and 25 µl/well Cell Titer Glo reagent was added to the remaining cells to measure compound toxicity.
Maxisorp immuno ELISA plates were pre-coated with 25 µL/well of anti-IL-23p19 capture antibody (2.5ug/mL) in PBS overnight at room temperature. […] The plates were read with a luminometer, and the chemiluminescence values were entered into Athena (Rigel) for curve fitting, EC50 calculation, and database storage. […]

[1] = Rat brain homogenate binding, equilibrium dialysis (RED); format: in vitro ADME; settings: two runs; brain homogenate 1 brain /3 buffer, drug 5 µM; 5 µM
Procedure: Brain and plasma drug binding were performed by equilibrium dialysis using the Rapid Equilibrium Dialysis (RED) device. Briefly, 300 µL of plasma or brain homogenate (1 brain /3 buffer) containing drug (5 µM) was equilibrated (4-18 h) against 500 µL of buffered saline. After incubation, the concentration of drug in plasma/brain homogenate and buffer was determined by LC-MS/MS.
Two runs of rat brain homogenate binding with I-1 compared to Comparison-1. I-1 is approximately 10-fold more free in rat brain than Comparison-1.

CCO[C@H]1CC[C@H](n2cc(NC(=O)c3csc(-c4cnn(COP(=O)(O)O)c4)n3)c(-c3ncccn3)n2)CC1 [Compound I-3, sodium (4-(4-((1-((1r,4r)-4-ethoxycyclohexyl)-3-(pyrimidin-2-yl)-1H-pyrazol-4-yl)carbamoyl)thiazol-2-yl)-1H-pyrazol-1-yl)methyl phosphate]
EC50 (TLR4-induced IL-23): 54.4 nM

CCO[C@H]1CC[C@H](n2cc(NC(=O)c3csc(-c4cn[nH]c4)n3)c(-c3ncccn3)n2)CC1 [Compound I-4, N-(1-((1r,4r)-4-ethoxycyclohexyl)-3-(pyrimidin-2-yl)-1H-pyrazol-4-yl)-2-(1H-pyrazol-4-yl)thiazole-4-carboxamide tartaric acid salt]
EC50 (TLR4-induced IL-23): 2.5 nM

CCO[C@H]1CC[C@H](n2cc(NC(=O)c3csc(-c4cn[nH]c4)n3)c(-c3nc(F)ccc3F)n2)CC1 [Comparison-1, reference compound]
rat brain homogenate binding (free drug) [1]: 0.102% and 0.114%
